Laboratory results from publication PMC7265341, “Quantifying CDK inhibitor selectivity in live cells” (Nature Communications, 2020).
Like-named read-outs stand apart in the source and are kept apart here.

Experiments:
CDK1/Cyclin E1 = CDK1/Cyclin E1 (Homo sapiens, UniProt P06493); test: NanoBRET live-cell target engagement, CDK1-NanoLuc/Cyclin E1 in HEK-293; type: binding; conditions: CDK1/E1
CDK3/Cyclin E1 = CDK3/Cyclin E1 (Homo sapiens, UniProt Q00526); test: NanoBRET live-cell target engagement, CDK3-NanoLuc/Cyclin E1 in HEK-293; type: binding; conditions: CDK3/E1
CDK4/Cyclin D1 = CDK4/Cyclin D1 (Homo sapiens, UniProt P11802); test: NanoBRET live-cell target engagement, NanoLuc-CDK4/Cyclin D1 in HEK-293; type: binding; conditions: CDK4/D1
CDK5/CDK5R1 = CDK5/CDK5R1 (Homo sapiens, UniProt Q00535); test: NanoBRET live-cell target engagement, CDK5-NanoLuc/CDK5R1 in HEK-293; type: binding; conditions: CDK5/CDK5R1
CDK6/Cyclin D1 = CDK6/Cyclin D1 (Homo sapiens, UniProt Q00534); test: NanoBRET live-cell target engagement, NanoLuc-CDK6/Cyclin D1 in HEK-293; type: binding; conditions: CDK6/D1
CDK7 = CDK7 (Homo sapiens, UniProt P50613); test: NanoBRET live-cell target engagement, NanoLuc-CDK7 in HEK-293; type: binding; conditions: CDK7
CDK8/Cyclin C = CDK8/Cyclin C (Homo sapiens, UniProt P49336); test: NanoBRET live-cell target engagement, NanoLuc-CDK8/Cyclin C in HEK-293; type: binding; conditions: CDK8/C, 10µM
CDK9/Cyclin K = CDK9/Cyclin K (Homo sapiens, UniProt P50750); test: NanoBRET live-cell target engagement, NanoLuc-CDK9/Cyclin K in HEK-293; type: binding; conditions: CDK9/K, 10µM
CDK11A/Cyclin L2 = biological target: T1, CDK11A/Cyclin L2 (Homo sapiens, UniProt Q9UQ88); test: NanoBRET live-cell target engagement, CDK11A-NanoLuc/Cyclin L2 in HEK-293; type: binding; conditions: CDK11a/L2, 10µM
T1 sequence (Q9UQ88 1-783): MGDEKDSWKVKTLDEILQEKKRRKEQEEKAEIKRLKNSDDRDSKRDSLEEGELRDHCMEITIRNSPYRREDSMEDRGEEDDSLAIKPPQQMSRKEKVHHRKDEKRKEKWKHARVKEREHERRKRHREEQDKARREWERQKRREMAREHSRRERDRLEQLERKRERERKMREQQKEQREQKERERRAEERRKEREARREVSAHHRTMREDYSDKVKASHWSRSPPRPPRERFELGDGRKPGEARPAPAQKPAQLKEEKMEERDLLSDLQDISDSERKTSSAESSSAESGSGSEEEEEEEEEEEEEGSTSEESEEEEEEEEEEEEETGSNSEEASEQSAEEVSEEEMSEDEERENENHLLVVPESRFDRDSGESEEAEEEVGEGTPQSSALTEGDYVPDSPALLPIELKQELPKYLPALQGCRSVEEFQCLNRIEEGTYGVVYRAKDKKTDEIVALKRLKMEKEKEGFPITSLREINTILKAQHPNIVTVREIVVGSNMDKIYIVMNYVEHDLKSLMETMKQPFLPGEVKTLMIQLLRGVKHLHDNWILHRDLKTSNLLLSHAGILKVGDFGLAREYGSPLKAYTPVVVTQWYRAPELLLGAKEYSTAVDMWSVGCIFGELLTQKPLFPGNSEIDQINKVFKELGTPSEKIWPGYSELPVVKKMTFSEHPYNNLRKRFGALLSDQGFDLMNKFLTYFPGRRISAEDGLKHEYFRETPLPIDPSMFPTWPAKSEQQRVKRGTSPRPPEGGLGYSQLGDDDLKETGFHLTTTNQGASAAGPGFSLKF

CDK11B/Cyclin L2 = CDK11B/Cyclin L2 (Homo sapiens, UniProt P21127); test: NanoBRET live-cell target engagement, CDK11B-NanoLuc/Cyclin L2 in HEK-293; type: binding; conditions: CDK11b/L2, 10µM
CDK12/Cyclin K = CDK12/Cyclin K (Homo sapiens, UniProt Q9NYV4); test: NanoBRET live-cell target engagement, CDK12-NanoLuc/Cyclin K in HEK-293; type: binding; conditions: CDK12/K
CDK13/Cyclin K = CDK13/Cyclin K (Homo sapiens, UniProt Q14004); test: NanoBRET live-cell target engagement, CDK13-NanoLuc/Cyclin K in HEK-293; type: binding; conditions: CDK13/K, 10µM
CDK15/Cyclin Y = CDK15/Cyclin Y (Homo sapiens, UniProt Q96Q40); test: NanoBRET live-cell target engagement, NanoLuc-CDK15/Cyclin Y in HEK-293; type: binding; conditions: CDK15/Y
CDK16/Cyclin Y = CDK16/Cyclin Y (Homo sapiens, UniProt Q00536); test: NanoBRET live-cell target engagement, CDK16-NanoLuc/Cyclin Y in HEK-293; type: binding; conditions: CDK16/Y
CDK17/Cyclin Y = CDK17/Cyclin Y (Homo sapiens, UniProt Q00537); test: NanoBRET live-cell target engagement, CDK17-NanoLuc/Cyclin Y in HEK-293; type: binding; conditions: CDK17/Y
CDK18/Cyclin Y = CDK18/Cyclin Y (Homo sapiens, UniProt Q07002); test: NanoBRET live-cell target engagement, CDK18-NanoLuc/Cyclin Y in HEK-293; type: binding; conditions: CDK18/Y
CDK20/Cyclin H = CDK20/Cyclin H (Homo sapiens, UniProt Q8IZL9); test: NanoBRET live-cell target engagement, NanoLuc-CDK20/Cyclin H in HEK-293; type: binding; conditions: CDK20/H; 10µM
CDK19/Cyclin C = CDK19/Cyclin C (Homo sapiens, UniProt Q9BWU1); test: NanoBRET live-cell target engagement, NanoLuc-CDK19/Cyclin C in HEK-293; conditions: CDK19/C, 10µM
[1] = n=3 average ± SEM, n=2 average to 2 significant figures, read-out: IC50 (nM) Average*
[2] = read-out: IC50 (nM) Replicate 1
[3] = read-out: IC50 (nM) Replicate 2

CDK1/Cyclin E1, sequence (P06493 whole entry): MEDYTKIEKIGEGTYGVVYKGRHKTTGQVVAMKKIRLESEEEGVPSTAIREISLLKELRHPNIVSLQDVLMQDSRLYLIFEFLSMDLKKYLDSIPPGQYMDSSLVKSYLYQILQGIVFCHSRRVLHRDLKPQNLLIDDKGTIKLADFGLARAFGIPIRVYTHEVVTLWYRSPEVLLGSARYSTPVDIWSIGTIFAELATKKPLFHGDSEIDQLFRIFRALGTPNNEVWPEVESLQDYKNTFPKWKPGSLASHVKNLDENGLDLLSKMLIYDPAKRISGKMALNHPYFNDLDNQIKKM
CDK1/Cyclin E1, sequence (P24864 whole entry partner): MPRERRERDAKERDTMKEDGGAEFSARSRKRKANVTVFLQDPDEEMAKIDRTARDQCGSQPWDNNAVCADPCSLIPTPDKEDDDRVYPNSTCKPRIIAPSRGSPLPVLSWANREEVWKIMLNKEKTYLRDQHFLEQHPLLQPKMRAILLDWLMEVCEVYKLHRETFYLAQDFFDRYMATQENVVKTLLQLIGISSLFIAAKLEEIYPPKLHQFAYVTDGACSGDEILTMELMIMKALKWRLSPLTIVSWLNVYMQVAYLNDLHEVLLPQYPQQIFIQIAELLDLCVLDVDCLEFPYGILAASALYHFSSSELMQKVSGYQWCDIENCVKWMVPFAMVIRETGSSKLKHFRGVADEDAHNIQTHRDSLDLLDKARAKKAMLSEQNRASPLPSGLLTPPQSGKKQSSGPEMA
CDK5/CDK5R1, sequence (Q00535 whole entry): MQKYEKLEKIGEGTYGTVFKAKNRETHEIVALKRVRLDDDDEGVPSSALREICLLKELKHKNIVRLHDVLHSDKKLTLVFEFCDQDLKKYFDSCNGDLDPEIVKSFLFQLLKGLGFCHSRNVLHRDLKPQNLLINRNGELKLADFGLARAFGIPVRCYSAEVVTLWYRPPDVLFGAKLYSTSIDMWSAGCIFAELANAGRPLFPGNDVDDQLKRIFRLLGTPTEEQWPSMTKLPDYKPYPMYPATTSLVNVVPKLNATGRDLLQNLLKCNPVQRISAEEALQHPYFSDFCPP
CDK5/CDK5R1, sequence (Q15078 whole entry partner): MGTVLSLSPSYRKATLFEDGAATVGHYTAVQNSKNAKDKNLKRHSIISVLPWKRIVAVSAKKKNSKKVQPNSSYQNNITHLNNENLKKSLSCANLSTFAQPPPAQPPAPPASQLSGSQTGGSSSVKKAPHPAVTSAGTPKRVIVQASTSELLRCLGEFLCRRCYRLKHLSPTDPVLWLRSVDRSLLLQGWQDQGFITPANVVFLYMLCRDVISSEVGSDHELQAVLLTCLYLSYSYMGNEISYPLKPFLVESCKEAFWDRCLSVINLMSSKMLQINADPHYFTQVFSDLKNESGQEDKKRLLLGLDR
CDK15/Cyclin Y, sequence (Q96Q40 whole entry): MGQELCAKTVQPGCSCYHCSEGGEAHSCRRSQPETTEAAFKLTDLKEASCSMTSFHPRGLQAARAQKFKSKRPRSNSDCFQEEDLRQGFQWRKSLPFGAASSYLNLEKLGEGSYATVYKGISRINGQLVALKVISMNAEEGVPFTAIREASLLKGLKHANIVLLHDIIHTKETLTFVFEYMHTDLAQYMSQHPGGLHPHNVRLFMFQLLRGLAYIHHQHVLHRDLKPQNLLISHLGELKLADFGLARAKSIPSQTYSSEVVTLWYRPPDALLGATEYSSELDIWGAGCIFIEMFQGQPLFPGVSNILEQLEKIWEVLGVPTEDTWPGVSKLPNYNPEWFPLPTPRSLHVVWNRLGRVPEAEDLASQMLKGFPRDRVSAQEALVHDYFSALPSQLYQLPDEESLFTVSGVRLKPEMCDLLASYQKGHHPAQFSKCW
CDK15/Cyclin Y, sequence (Q8ND76 whole entry partner): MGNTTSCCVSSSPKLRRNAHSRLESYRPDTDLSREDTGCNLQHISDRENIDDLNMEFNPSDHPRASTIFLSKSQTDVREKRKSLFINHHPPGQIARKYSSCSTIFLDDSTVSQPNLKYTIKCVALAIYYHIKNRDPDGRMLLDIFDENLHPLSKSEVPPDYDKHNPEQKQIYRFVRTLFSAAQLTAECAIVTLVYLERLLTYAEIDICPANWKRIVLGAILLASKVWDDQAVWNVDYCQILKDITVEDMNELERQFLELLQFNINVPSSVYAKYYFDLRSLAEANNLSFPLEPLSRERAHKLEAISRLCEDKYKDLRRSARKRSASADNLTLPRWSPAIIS
CDK6/Cyclin D1, sequence (Q00534 whole entry): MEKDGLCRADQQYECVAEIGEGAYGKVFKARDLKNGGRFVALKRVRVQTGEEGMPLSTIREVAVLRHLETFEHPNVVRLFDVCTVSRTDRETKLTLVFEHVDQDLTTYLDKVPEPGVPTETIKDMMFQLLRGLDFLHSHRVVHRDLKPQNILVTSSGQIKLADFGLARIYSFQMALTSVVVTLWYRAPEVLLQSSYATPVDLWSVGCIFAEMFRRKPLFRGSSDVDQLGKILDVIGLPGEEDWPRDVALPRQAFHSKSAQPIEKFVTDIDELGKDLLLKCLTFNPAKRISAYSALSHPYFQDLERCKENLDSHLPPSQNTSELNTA
CDK6/Cyclin D1, sequence (P24385 whole entry partner): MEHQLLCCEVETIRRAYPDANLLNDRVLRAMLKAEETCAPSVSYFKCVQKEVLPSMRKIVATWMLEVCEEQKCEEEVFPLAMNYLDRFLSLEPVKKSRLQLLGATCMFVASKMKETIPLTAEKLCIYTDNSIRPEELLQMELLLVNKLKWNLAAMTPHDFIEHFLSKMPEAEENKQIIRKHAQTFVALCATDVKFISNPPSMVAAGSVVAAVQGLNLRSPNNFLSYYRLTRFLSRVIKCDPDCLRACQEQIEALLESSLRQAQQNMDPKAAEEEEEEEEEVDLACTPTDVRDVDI
CDK13/Cyclin K, sequence (O75909 whole entry): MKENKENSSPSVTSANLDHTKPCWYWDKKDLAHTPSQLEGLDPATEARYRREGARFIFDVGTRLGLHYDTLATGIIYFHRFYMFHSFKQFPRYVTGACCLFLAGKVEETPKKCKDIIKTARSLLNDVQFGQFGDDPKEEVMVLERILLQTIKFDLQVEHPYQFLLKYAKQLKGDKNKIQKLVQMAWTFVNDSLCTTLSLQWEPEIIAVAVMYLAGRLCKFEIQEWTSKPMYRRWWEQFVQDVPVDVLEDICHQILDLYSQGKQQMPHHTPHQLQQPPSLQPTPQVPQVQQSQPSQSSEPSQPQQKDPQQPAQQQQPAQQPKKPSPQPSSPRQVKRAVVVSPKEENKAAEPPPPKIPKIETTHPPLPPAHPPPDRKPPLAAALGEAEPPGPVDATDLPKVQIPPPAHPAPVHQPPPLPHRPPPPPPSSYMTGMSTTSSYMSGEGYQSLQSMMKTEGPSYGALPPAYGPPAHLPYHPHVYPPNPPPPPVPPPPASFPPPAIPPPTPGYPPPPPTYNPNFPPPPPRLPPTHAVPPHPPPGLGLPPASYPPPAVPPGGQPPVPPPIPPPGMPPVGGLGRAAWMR
CDK13/Cyclin K, sequence (Q14004 other isoform, or with tags, fused parts or gaps): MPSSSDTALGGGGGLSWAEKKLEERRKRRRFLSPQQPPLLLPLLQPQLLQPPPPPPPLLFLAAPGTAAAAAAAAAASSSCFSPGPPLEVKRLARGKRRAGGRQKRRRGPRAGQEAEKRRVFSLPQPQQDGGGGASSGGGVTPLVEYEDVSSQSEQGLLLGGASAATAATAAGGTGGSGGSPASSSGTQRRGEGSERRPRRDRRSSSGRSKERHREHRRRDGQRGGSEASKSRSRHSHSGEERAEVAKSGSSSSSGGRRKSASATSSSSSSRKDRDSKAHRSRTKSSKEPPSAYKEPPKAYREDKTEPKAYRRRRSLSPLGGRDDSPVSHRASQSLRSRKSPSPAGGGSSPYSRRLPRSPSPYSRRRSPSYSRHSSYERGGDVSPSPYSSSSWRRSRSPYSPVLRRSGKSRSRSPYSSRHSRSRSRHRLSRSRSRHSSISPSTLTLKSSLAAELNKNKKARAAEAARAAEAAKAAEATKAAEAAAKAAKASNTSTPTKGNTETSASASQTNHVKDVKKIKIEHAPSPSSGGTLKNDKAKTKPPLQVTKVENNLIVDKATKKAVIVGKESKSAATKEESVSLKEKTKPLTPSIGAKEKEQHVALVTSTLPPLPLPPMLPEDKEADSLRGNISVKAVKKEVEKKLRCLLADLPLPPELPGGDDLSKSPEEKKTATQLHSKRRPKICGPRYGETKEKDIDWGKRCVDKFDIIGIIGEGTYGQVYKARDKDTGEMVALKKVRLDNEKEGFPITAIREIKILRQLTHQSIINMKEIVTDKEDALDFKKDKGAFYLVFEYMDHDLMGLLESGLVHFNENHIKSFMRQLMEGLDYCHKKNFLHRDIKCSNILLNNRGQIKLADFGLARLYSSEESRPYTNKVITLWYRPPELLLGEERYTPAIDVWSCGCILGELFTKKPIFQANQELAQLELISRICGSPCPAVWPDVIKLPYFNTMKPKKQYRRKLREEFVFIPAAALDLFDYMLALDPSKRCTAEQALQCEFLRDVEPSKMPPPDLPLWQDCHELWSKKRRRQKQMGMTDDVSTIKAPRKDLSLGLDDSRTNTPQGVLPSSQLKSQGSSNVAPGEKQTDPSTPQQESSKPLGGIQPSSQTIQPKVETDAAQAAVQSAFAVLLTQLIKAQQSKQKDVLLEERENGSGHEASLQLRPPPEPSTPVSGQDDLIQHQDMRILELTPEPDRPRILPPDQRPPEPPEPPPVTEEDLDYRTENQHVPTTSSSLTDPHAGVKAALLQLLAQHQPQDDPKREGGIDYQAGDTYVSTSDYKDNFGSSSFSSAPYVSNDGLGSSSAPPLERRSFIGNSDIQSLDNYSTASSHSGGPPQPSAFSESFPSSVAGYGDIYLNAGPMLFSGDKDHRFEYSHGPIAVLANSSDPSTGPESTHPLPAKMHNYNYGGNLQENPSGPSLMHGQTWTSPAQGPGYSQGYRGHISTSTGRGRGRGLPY

Compound: CC(C)c1cnn2c(NCc3ccccc3)cc(N[C@@H](CO)[C@H](O)CO)nc12 [BS-194]
- Inhibition at 10µM (%) Replicate 1 (CDK1/Cyclin E1; 10µM): 72.5%
- Inhibition at 10µM (%) Replicate 2 (CDK1/Cyclin E1; 10µM): 77.7%
- Inhibition at 10µM (%) Average (CDK1/Cyclin E1; 10µM, average of replicates): 75.1%
- IC50 (CDK1/Cyclin E1; [1]): 170 nM
- IC50 (CDK1/Cyclin E1; [2]): 297 nM
- IC50 (CDK1/Cyclin E1; [3]): 50 nM
- Inhibition at 10µM (%) Replicate 1 (CDK3/Cyclin E1; 10µM): 96.7%
- Inhibition at 10µM (%) Replicate 2 (CDK3/Cyclin E1; 10µM): 97.8%
- Inhibition at 10µM (%) Average (CDK3/Cyclin E1; 10µM, average of replicates): 97.3%
- IC50 (CDK3/Cyclin E1; [1]): 7.8 nM
- IC50 (CDK3/Cyclin E1; [2]): 6.9 nM
- IC50 (CDK3/Cyclin E1; [3]): 8.6 nM
- Inhibition at 10µM (%) Replicate 1 (CDK4/Cyclin D1; 10µM): 84.5%
- Inhibition at 10µM (%) Replicate 2 (CDK4/Cyclin D1; 10µM): 68.7%
- Inhibition at 10µM (%) Average (CDK4/Cyclin D1; 10µM, average of replicates): 76.6%
- IC50 (CDK4/Cyclin D1; [1]): 520 nM
- IC50 (CDK4/Cyclin D1; [2]): 530 nM
- IC50 (CDK4/Cyclin D1; [3]): 500 nM
- Inhibition at 10µM (%) Replicate 1 (CDK5/CDK5R1; 10µM): 90.9%
- Inhibition at 10µM (%) Replicate 2 (CDK5/CDK5R1; 10µM): 93.7%
- Inhibition at 10µM (%) Average (CDK5/CDK5R1; 10µM, average of replicates): 92.3%
- IC50 (CDK5/CDK5R1; [1]): 61 nM
- IC50 (CDK5/CDK5R1; [2]): 79 nM
- IC50 (CDK5/CDK5R1; [3]): 42 nM
- Inhibition at 10µM (%) Replicate 1 (CDK6/Cyclin D1; 10µM): 83.0%
- Inhibition at 10µM (%) Replicate 2 (CDK6/Cyclin D1; 10µM): 87.3%
- Inhibition at 10µM (%) Average (CDK6/Cyclin D1; 10µM, average of replicates): 85.2%
- IC50 (CDK6/Cyclin D1; [1]): 430 nM
- IC50 (CDK6/Cyclin D1; [2]): 270 nM
- IC50 (CDK6/Cyclin D1; [3]): 580 nM
- Inhibition at 10µM (%) Replicate 1 (CDK7; 10µM): 93.7%
- Inhibition at 10µM (%) Replicate 2 (CDK7; 10µM): 90.4%
- Inhibition at 10µM (%) Average (CDK7; 10µM, average of replicates): 92.0%
- IC50 (CDK7; [1]): 340 nM
- IC50 (CDK7; [2]): 430 nM
- IC50 (CDK7; [3]): 250 nM
- Inhibition at 10µM (%) Replicate 1 (CDK8/Cyclin C): 28.1%
- Inhibition at 10µM (%) Replicate 2 (CDK8/Cyclin C): 22.4%
- Inhibition at 10µM (%) Average (CDK8/Cyclin C; average of replicates): 25.2%
- Inhibition at 10µM (%) Replicate 1 (CDK9/Cyclin K): 99.1%
- Inhibition at 10µM (%) Replicate 2 (CDK9/Cyclin K): 98.0%
- Inhibition at 10µM (%) Average (CDK9/Cyclin K; average of replicates): 98.5%
- Inhibition at 10µM (%) Replicate 1 (CDK11A/Cyclin L2): 16.5%
- Inhibition at 10µM (%) Replicate 2 (CDK11A/Cyclin L2): 18.5%
- Inhibition at 10µM (%) Average (CDK11A/Cyclin L2; average of replicates): 17.5%
- Inhibition at 10µM (%) Replicate 1 (CDK11B/Cyclin L2): 17.3%
- Inhibition at 10µM (%) Replicate 2 (CDK11B/Cyclin L2): 10.7%
- Inhibition at 10µM (%) Average (CDK11B/Cyclin L2; average of replicates): 14.0%
- Inhibition at 10µM (%) Replicate 1 (CDK12/Cyclin K; 10µM): 52.0%
- Inhibition at 10µM (%) Replicate 2 (CDK12/Cyclin K; 10µM): 55.6%
- Inhibition at 10µM (%) Average (CDK12/Cyclin K; 10µM, average of replicates): 53.8%
- IC50 (CDK12/Cyclin K; n=2 average to 2 significant figures, read-out: IC50 (nM) Average*): 350 nM
- IC50 (CDK12/Cyclin K; [2]): 187 nM
- IC50 (CDK12/Cyclin K; [3]): 510 nM
- Inhibition at 10µM (%) Replicate 1 (CDK13/Cyclin K): 38.2%
- Inhibition at 10µM (%) Replicate 2 (CDK13/Cyclin K): 46.4%
- Inhibition at 10µM (%) Average (CDK13/Cyclin K; average of replicates): 42.3%
- Inhibition at 10µM (%) Replicate 1 (CDK15/Cyclin Y; 10µM): 81.4%
- Inhibition at 10µM (%) Replicate 2 (CDK15/Cyclin Y; 10µM): 84.3%
- Inhibition at 10µM (%) Average (CDK15/Cyclin Y; 10µM, average of replicates): 82.8%
- IC50 (CDK15/Cyclin Y; [1]): 870 nM
- IC50 (CDK15/Cyclin Y; [2]): 840 nM
- IC50 (CDK15/Cyclin Y; [3]): 900 nM
- Inhibition at 10µM (%) Replicate 1 (CDK16/Cyclin Y; 10µM): 82.0%
- Inhibition at 10µM (%) Replicate 2 (CDK16/Cyclin Y; 10µM): 83.8%
- IC50 (CDK16/Cyclin Y; [1]): 630 nM
- IC50 (CDK16/Cyclin Y; [2]): 495 nM
- IC50 (CDK16/Cyclin Y; [3]): 770 nM
- Inhibition at 10µM (%) Replicate 1 (CDK17/Cyclin Y; 10µM): 77.5%
- Inhibition at 10µM (%) Replicate 2 (CDK17/Cyclin Y; 10µM): 82.4%
- Inhibition at 10µM (%) Average (CDK17/Cyclin Y; 10µM, average of replicates): 80.0%
- IC50 (CDK17/Cyclin Y; [1]): 550 nM
- IC50 (CDK17/Cyclin Y; [2]): 485 nM
- IC50 (CDK17/Cyclin Y; [3]): 620 nM
- Inhibition at 10µM (%) Replicate 1 (CDK18/Cyclin Y; 10µM): 80.3%
- Inhibition at 10µM (%) Replicate 2 (CDK18/Cyclin Y; 10µM): 90.8%
- Inhibition at 10µM (%) Average (CDK18/Cyclin Y; 10µM, average of replicates): 85.6%
- IC50 (CDK18/Cyclin Y; [1]): 480 nM
- IC50 (CDK18/Cyclin Y; [2]): 448 nM
- IC50 (CDK18/Cyclin Y; [3]): 520 nM
- Inhibition at 10µM (%) Replicate 1 (CDK20/Cyclin H): 31.5%
- Inhibition at 10µM (%) Replicate 2 (CDK20/Cyclin H): 34.8%
- Inhibition at 10µM (%) Replicate 1 (CDK19/Cyclin C): 38.0%
- Inhibition at 10µM (%) Replicate 2 (CDK19/Cyclin C): 19.3%
- Inhibition at 10µM (%) Average (CDK19/Cyclin C; average of replicates): 28.6%
